The nature of data set [1]: Enzymatic hydrolysis (stability) in human liver S9 fractions. The format is in vitro ADME. The settings on record: 100 μM compound, human liver S9 0.166 mg/ml, phosphate buffer pH 7.4, active S9 fractions. As to the method: Enzymes of the nasal cavity are not easily available, but the nasal cavity contains similar enzymatic activities as found in the liver, namely carboxylesterases (J. L. Lewis, K. J. Nikula, R. Novak, A. R. Dahl, Anat Rec 1994, 239). Therefore the different compounds of examples 1-3 were compared for enzymatic hydrolysis using human liver […]. Chemicals were dissolved to a final concentration of 100 μM in a total volume of 600 μl of phosphate buffer (100 mM, pH 7.4, containing 1.15% potassium chloride and 1 mM of EDTA). S9 fractions from humans at a final level of 0.166 mg/ml were added (Corning® Gentest™ Human Liver S9 Pooled Donors, 20 mg/mL protein content, Product #452961;), Lot 22877,). As control experiment, equal levels of heat inactivated S9 fractions (incubated for 10 min at 99° C.) were added to parallel samples. The samples were incubated for different time periods and then mixed in 2 ml glass vials with 300 μl of Methyl-tert-butylether (MTBE) containing as internal standard 1 ppm of dodecane. Samples were extracted on a vortex mixer for 20 s, and then ca. 200 μl of the supernatant was transferred to conical GC vials and concentrated under a stream of nitrogen. 1 μl of these concentrated extracts were then injected with a splitless injection into an Agilent GC 6890N gas chromatograph equipped with a flame-ionisation detector. The following GC conditions were applied: Column: Rtx −5; 30 m length×0.32 mm internal diameter×0.25 μm film thickness; Carrier gas: Hydrogen; Column flow: 2 mL; Initial temperature of 60° C. held for 2 min, subsequent linear gradient with 10° C. per minute up to a temperature of 240° C. […] To determine calibration curves, dilutions of the test chemicals or of the potentially released alcohols were added to heat inactivated S9 fraction and extracted, concentrated and analysed as described above. All concentrations (in test samples and calibration curves) were determined by normalization to the internal standard. […]

Data set [2] relates to KeratinoSens cell line (Luciferase gene under the control of the ARE-element of the gene AKR1C2). As to the kind of experiment: KeratinoSens assay for skin sensitization: luciferase gene induction. The format is cell-based. The settings on record: for Concentration for 1.5-fold gene induction (EC 1.5 in μM) / Imax (fold maximal gene induction): 48 h incubation, 0.98 to 2000 μM; for Imax (fold maximal gene induction): threshold 1.5-fold; for rating of skin sensitization by the KeratinoSens assay: result in words. On the procedure: Compounds were tested using the commercial KeratinoSens™ assay for skin sensitization.
(§1) The KeratinoSens™ test compares the potential skin sensitization risk of chemicals. The KeratinoSens™ cell line contains a stable insertion of a Luciferase gene under the control of the ARE-element of the gene AKR1C2 and induction of luciferase is indicative of skin sensitization potential (R. Emter, G. Ellis, A. Natsch, Toxicol. Appl. Pharmacol. 2010, 245, 281-290). The assay was performed as described by the OECD test guideline 442d. KeratinoSens cells were grown for 24 h in 96-well plates. The medium was then replaced with medium containing the test chemical and the solvent dimethylsulfoxide (DMSO) at a final level of 1%. Each compound was tested at 12 binary dilutions in the range from 0.98 to 2000 μM. Cells were incubated for 48 h with the test agents, and then luciferase activity and cytotoxicity were determined. This full procedure was repeated three times for each chemical. For each chemical in each repetition and at each concentration, the gene induction compared to DMSO controls and the wells with statistically significant induction over the threshold of 1.5 (i.e. 50% enhanced gene activity) were determined. Furthermore, the maximal fold-induction (Imax) and the EC1.5 value (concentration in μM for induction above the threshold) were calculated. Chemicals are rated as positive (i.e. likely skin-sensitizers) in the assay if the following three criteria are fulfilled:
(i) EC1.5 value is below 1000 μM.
(ii) At the lowest concentration with a gene induction above 1.5 fold, the cellular viability is above 70%.
(iii) There is an apparent overall dose-response for luciferase induction, which is similar between the repetitions.

Data set [3] is described as follows: KeratinoSens assay: cytotoxicity / cellular viability. The note with it: human; 48 h incubation; read-out: Concentration for 50% Cytotoxicity. The data set is classed as cell-based. On the procedure:
as §1, with “fulfilled: […]” for “fulfilled:”

Data set [4] has as its system test peptide Cor1C-420 (Ac-NKKCDLF). As to the kind of experiment: Peptide reactivity assay (kinetic variant of DPRA, LC-MS). The note with it: 1 mM test chemical, 0.1 mM peptide, 37° C. As to the method:
A second method to determine allergenic potential of chemicals is the DPRA direct peptide assay (OECD TG 442c). It is based on the fact that allergenic chemicals must react with a peptide/protein in order to be immunogenic.
A peptide reactivity assay (A. Natsch, H. Gfeller, Toxicol. Sci. 2008, 106, 464-478) was conducted similarly to the DPRA assay, but including a kinetic measurement to quantify reactivity: The test chemicals were dissolved to a final concentration of 4 mM in acetonitrile and 250 μl of this solution were added to 2 ml HPLC vials. The test peptide Cor1C-420 with the sequence Ac-NKKCDLF (Genscript Inc., Piscataway, N.J., USA), was dissolved at 0.133 mM in 20 mM phosphate buffer at pH 7.5, and 750 μl of this solution were added to each test vial (final concentrations: 1 mM of test chemical and 0.1 mM of peptide in 25% acetonitrile; ratio 1:10 as in the DPRA assay). The samples were incubated for 1-24 h at 37° C. and at regular intervals they were analysed by LC-MS analysis on a VELOS PRO Mass spectrometer (Thermo SCIENTIFIC, San Jose, Calif., U.S.A.) operated in the ESI(+) mode.
Mass spectra were recorded from 200-2000 amu. […]
Two endpoints are measured with this assay:
a) Depletion of the parent peptide (FIG. 3): The mass of the protonated parent peptide is measured and the corresponding peak integrated (% depletion). […]

For another data set, the system named is KeratinoSens cells. Briefly: KeratinoSens assay: cytotoxicity / cellular viability. The data set is classed as cell-based. The settings on record: 48 h incubation; read-out: Concentration for 50% Cytotoxicity. As to the method: as §1, with “fulfilled: […]” for “fulfilled:”

The results in this text go back to US10343971B2, “Crotonates having use in perfumery” (GIVAUDAN SA, priority 2016, dated 2019).

Structures are written as SMILES.

Take `C/C=C/C(=O)OC1[C@H](C)CCC[C@H]1C` (relative stereo) [Example 2, (2R*,6R*)-2,6-dimethylcyclohexyl (E)-but-2-enoate]: the “cleavage (enzymatic hydrolysis of the ester) by active S9 fractions” value (shortened to “cleavage … by active S9 fractions”) in data set [1] is “completely hydrolysed”.
Take `C/C=C/C(=O)O[C@H]1[C@@H](C)C=CCC1(C)C` (relative stereo) [Example 6a, (1S*,2S*)-2,6,6-Trimethylcyclohex-3-en-1-yl (E)-but-2-enoate]: in data set [2], the “Concentration for 1.5-fold gene induction (EC 1.5 in μM)” value is reported as “No induction” and the “Imax (fold maximal gene induction)” value was 1.13 fold. In addition, in data set [3], the IC50 at 48 h stood at 89.4 µM.
In the case of `C/C=C/C(=O)O[C@@H]1[C@H](C)CCC[C@@H]1C` [Example 1, (1s*,2R*,6S*)-2,6-dimethylcyclohexyl (E)-but-2-enoate], the “cleavage … by active S9 fractions” value in data set [1] is recorded as under 3%. In addition, in data set [2], the “Concentration for 1.5-fold gene induction (EC 1.5 in μM)” value is reported as “No induction” and the “rating of skin sensitization by the KeratinoSens assay” value is “non-sensitizing”. Besides, the IC50 at 48 h in data set [3] amounted to 86.9 µM. The “peptide depletion (consumption of the parent peptide as compared to controls)” value in data set [4] (1-24 h) is reported as under 10%. The “lower levels of peptide adducts as compared to Damascone Delta and Damascone gamma” value in data set [4] (after 1 h) is listed as over 100.
Regarding `C/C=C/C(=O)O[C@H]1[C@H](C)CCC[C@@H]1C` [Example 3, (1r*,2R*,6S*)-2,6-dimethylcyclohexyl (E)-but-2-enoate], the “cleavage … by active S9 fractions” value in data set [1] is 15%.
As to `C/C=C/C(=O)C1=C(C)CCCC1(C)C` [β-Damascone, (2E)-1-(2′,6′,6′-trimethylcyclohex-1′-en-1′-yl)but-2-en-1-one, reference compound], in data set [2], the “concentration at which the luciferase gene is induced” value was 4.5 µM, the “Concentration for 1.5-fold gene induction (EC 1.5 in μM)” value amounted to 4.5 µM, the “Imax (fold maximal gene induction)” value was found to be 29.8 fold and the “rating of skin sensitization by the KeratinoSens assay” value is “significantly sensitizing compound”. In the data set with KeratinoSens cells, the IC50 was 56.7 µM.
